Reference: the supplement of paper PMC10307832

What was measured:
Experiment in all cases: relative viability (nuclei count vs DMSO), 5 days (fraction); higher = more cells survive
[1] = tested on: NCI-H1944
Outline: (§1)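 Relative viability divides the nuclei count in treated wells by that in vehicle wells. Lung cancer cell lines were seeded in 1536-well plates, dosed by pin tool the next day, and fixed and stained after 5 days in one step with final 0.05% Triton X-100, 1% formaldehyde and 1 ug/ml Hoechst. Dosing was a single drug or a fixed anchor-drug dose plus five library-drug doses (not always all listed) in √10 steps, and values are medians of duplicate plates imaged at 4×.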

[2] = tested on: HCC-827
Outline: as §1

[3] = tested on: COR-L 105
Outline: as §1

[4] = tested on: H3255
Outline: as §1

[5] = tested on: EPLC-272H
Outline: as §1

[6] = tested on: NCI-H520
Outline: as §1

[7] = tested on: NCI-H2087
Outline: as §1

[8] = tested on: NCI-H647
Outline: as §1

[9] = tested on: NCI-H1651
Outline: as §1

[10] = tested on: NCI-H522
Outline: as §1

[11] = tested on: NCI-H1755
Outline: as §1

[12] = tested on: COR-L23
Outline: as §1

[13] = tested on: LCLC-103H
Outline: as §1

[14] = tested on: NCI-H1975
Outline: as §1

[15] = tested on: NCI-H358
Outline: as §1

[16] = tested on: NCI-H650
Outline: as §1

[17] = tested on: NCI-H1650
Outline: as §1

[18] = tested on: NCI-H1437
Outline: as §1

[19] = tested on: HCC-15
Outline: as §1

[20] = tested on: NCI-H1792
Outline: as §1

[21] = tested on: NCI-H727
Outline: as §1

[22] = tested on: NCI-H661
Outline: as §1

`COCC1(CO)C(=O)C2CCN1CC2` (stereo unspecified) [PRIMA-1MET] + COc1cccc2cc(-c3nc([C@H]4CC[C@H](C(=O)O)CC4)n4ncnc(N)c34)[nH]c12 [OSI-027] (partner 0.5 µM) gave a relative viability ([1]; first compound 0.2 µM) of 0.408, a relative viability ([1]; first compound 0.6325 µM) of 0.359 and a relative viability ([1]; first compound 2 µM) of 0.3. For the same compound, the relative viability ([1]; first compound 6.325 µM) was 0.409, the relative viability ([1]; first compound 20 µM) was 0.393 and the relative viability ([2]; first compound 0.2 µM) was 0.694. The relative viability ([2]; first compound 0.6325 µM) was 0.668, the relative viability ([2]; first compound 2 µM) was 0.625 and the relative viability ([2]; first compound 6.325 µM) was 0.784. It also gave a relative viability ([2]; first compound 20 µM) of 0.748, a relative viability ([3]; first compound 0.2 µM) of 0.899 and a relative viability ([3]; first compound 0.6325 µM) of 0.66. For the same compound, the relative viability ([3]; first compound 2 µM) was 0.488, the relative viability ([3]; first compound 6.325 µM) was 0.662 and the relative viability ([3]; first compound 20 µM) was 0.0915. The relative viability ([4]; first compound 0.2 µM) was 0.642, the relative viability ([4]; first compound 0.6325 µM) was 0.629 and the relative viability ([4]; first compound 2 µM) was 0.562. It also gave a relative viability ([4]; first compound 6.325 µM) of 0.658, a relative viability ([4]; first compound 20 µM) of 0.498 and a relative viability ([5]; first compound 2 µM) of 0.235. It also gave a relative viability ([5]; first compound 6.325 µM) of 0.27, a relative viability ([5]; first compound 20 µM) of 0.0689 and a relative viability ([6]; first compound 0.2 µM) of 0.31. It also gave a relative viability ([6]; first compound 0.6325 µM) of 0.213, a relative viability ([6]; first compound 2 µM) of 0.169 and a relative viability ([6]; first compound 6.325 µM) of 0.197. For the same compound, the relative viability ([6]; first compound 20 µM) was 0.143, the relative viability ([7]; first compound 0.2 µM) was 0.355 and the relative viability ([7]; first compound 0.6325 µM) was 0.481. The relative viability ([7]; first compound 2 µM) was 0.681, the relative viability ([7]; first compound 6.325 µM) was 0.433 and the relative viability ([7]; first compound 20 µM) was 0.262. For the same compound, the relative viability ([8]; first compound 0.2 µM) was 0.684, the relative viability ([8]; first compound 0.6325 µM) was 0.837 and the relative viability ([8]; first compound 2 µM) was 0.508. The relative viability ([8]; first compound 6.325 µM) was 0.56, the relative viability ([8]; first compound 20 µM) was 0.105 and the relative viability ([9]; first compound 0.2 µM) was 0.801. It also gave a relative viability ([9]; first compound 0.6325 µM) of 0.756, a relative viability ([9]; first compound 2 µM) of 0.636 and a relative viability ([9]; first compound 6.325 µM) of 0.669. For the same compound, the relative viability ([9]; first compound 20 µM) was 0.701, the relative viability ([10]; first compound 0.2 µM) was 0.647 and the relative viability ([10]; first compound 0.6325 µM) was 0.671. The relative viability ([10]; first compound 2 µM) was 0.596, the relative viability ([10]; first compound 6.325 µM) was 0.836 and the relative viability ([10]; first compound 20 µM) was 0.13. It also gave a relative viability ([11]; first compound 0.2 µM) of 0.664, a relative viability ([11]; first compound 0.6325 µM) of 0.668 and a relative viability ([11]; first compound 2 µM) of 0.402. It also gave a relative viability ([11]; first compound 6.325 µM) of 0.682, a relative viability ([11]; first compound 20 µM) of 0.673 and a relative viability ([12]; first compound 0.2 µM) of 0.892. It also gave a relative viability ([12]; first compound 0.6325 µM) of 0.679, a relative viability ([12]; first compound 2 µM) of 0.728 and a relative viability ([12]; first compound 6.325 µM) of 0.744. The relative viability ([12]; first compound 20 µM) was 0.0162, the relative viability ([13]; first compound 0.2 µM) was 0.547 and the relative viability ([13]; first compound 0.6325 µM) was 0.391. It also gave a relative viability ([13]; first compound 2 µM) of 0.399, a relative viability ([13]; first compound 6.325 µM) of 0.481 and a relative viability ([13]; first compound 20 µM) of 0.409. It also gave a relative viability ([14]; first compound 0.2 µM) of 0.879, a relative viability ([14]; first compound 0.6325 µM) of 0.62 and a relative viability ([14]; first compound 2 µM) of 0.604. For the same compound, the relative viability ([14]; first compound 6.325 µM) was 0.777, the relative viability ([14]; first compound 20 µM) was 0.738 and the relative viability ([15]; first compound 0.2 µM) was 0.734. It also gave a relative viability ([15]; first compound 2 µM) of 0.653, a relative viability ([15]; first compound 6.325 µM) of 0.954 and a relative viability ([15]; first compound 20 µM) of 0.365. For the same compound, the relative viability ([16]; first compound 0.2 µM) was 0.705, the relative viability ([16]; first compound 2 µM) was 0.5 and the relative viability ([16]; first compound 6.325 µM) was 0.603. It also gave a relative viability ([16]; first compound 20 µM) of 0.381, a relative viability ([17]; first compound 0.2 µM) of 0.742 and a relative viability ([17]; first compound 0.6325 µM) of 0.664. For the same compound, the relative viability ([17]; first compound 2 µM) was 0.483, the relative viability ([17]; first compound 6.325 µM) was 0.636 and the relative viability ([17]; first compound 20 µM) was 0.0483. The relative viability ([18]; first compound 0.2 µM) was 1.03, the relative viability ([18]; first compound 0.6325 µM) was 0.945 and the relative viability ([18]; first compound 2 µM) was 0.794. It also gave a relative viability ([18]; first compound 6.325 µM) of 0.893, a relative viability ([18]; first compound 20 µM) of 0.887 and a relative viability ([19]; first compound 0.2 µM) of 0.534. It also gave a relative viability ([19]; first compound 0.6325 µM) of 0.616, a relative viability ([19]; first compound 2 µM) of 0.526 and a relative viability ([19]; first compound 6.325 µM) of 0.559. The relative viability ([19]; first compound 20 µM) was 0.439, the relative viability ([20]; first compound 0.2 µM) was 0.683 and the relative viability ([20]; first compound 0.6325 µM) was 0.693. For the same compound, the relative viability ([20]; first compound 2 µM) was 0.635, the relative viability ([20]; first compound 6.325 µM) was 0.734 and the relative viability ([20]; first compound 20 µM) was 0.802. The relative viability ([21]; first compound 0.2 µM) was 0.357, the relative viability ([21]; first compound 0.6325 µM) was 0.371 and the relative viability ([21]; first compound 2 µM) was 0.498. It also gave a relative viability ([21]; first compound 6.325 µM) of 0.536, a relative viability ([21]; first compound 20 µM) of 0.338 and a relative viability ([22]; first compound 0.2 µM) of 0.747. It also gave a relative viability ([22]; first compound 0.6325 µM) of 0.65, a relative viability ([22]; first compound 2 µM) of 0.617 and a relative viability ([22]; first compound 6.325 µM) of 0.749. The relative viability ([22]; first compound 20 µM) was 0.622.
